Entries after “also recorded” stand apart in the source; their conditions may differ. Where two headings read alike, the source gives them in different places.
Tests used:
[1] = system: male rats, Wistar strain; assay: 5 day no-choice bait feeding test, deaths up to 21 days; type: in vivo, rat (male; details: 5 day no-choice feed
Method: Appropriate amounts of Compounds 1, and 3 and 5 were dissolved in acetone, serially diluted, and slurried onto rolled oats to give final bait concentrations of 5.0, 2.0, 0.5 and 0.2 ppm for Compound 1 and 20.0, 10.0, […] and 2.0 ppm for Compounds 3 and 5. Each bait was offered as a 5 day no-choice feed to groups of five individually caged male rats, Wistar strain.

[2] = system: female rats Homozygous--Resistant Welsh strain; assay: 24h no-choice bait feeding test, resistant rats, deaths up to 21 days; type: in vivo, rat (female; details: 24h no-choice feed
Method: (§1) Appropriate amounts of Compounds 1,2,3 and 5 were dissolved in acetone and slurried onto rolled oats to give final bait concentrations of 20 ppm for Compounds 1 and 2; and 50 ppm for Compounds 3 and 5. Each bait was offered as a 24h no-choice feed to groups of five individually caged female rats Homozygous--Resistant Welsh strain; and similarly to groups of five individually caged male and female mice (Cambridge Cream Resistant strain).

[3] = system: male and female mice (Cambridge Cream Resistant strain); assay: 24h no-choice bait feeding test, resistant mice, deaths up to 21 days; type: in vivo, mouse (Cambridge Cream Resistant strain); details: 24h no-choice feed
Method: as §1

[4] = system: Prothrombin time (blood clotting); assay: Prothrombin time ED50 (3 days after intraperitoneal injection); type: in vivo, rat (male Wistar strain); details: for ED50: Rattus norvegicus, S100, ip, 72 h, read-out: 3-day ED50 (Prothrombin time ED50); for anticoagulant activity (comparison in words): compared with Brodifacoum or Difenacoum
Method: Compounds in accordance with the invention, and other substituted 4-hydroxy coumarin compounds not within the invention, including Brodifacoum, Difenacoum and Warfarin, were tested as described in the following examples. The Prothrombin time ED50 value is the most reliable method for measuring anticoagulant activity. The LD50 value is of significance in regard to the potency of the compound as a rodenticide.
A preliminary test was carried out to reliably rank the potential rodenticides in order of anticogulant potency.
The method used involved measurement of the Prothrombin time (a measure of blood clotting properties) which is based on that described in a paper by Quick, A. J., Stanley-Brown, M. and Bankoft. F. W. entitled "Study of Coagulation Defect in Haemophilia and in Jaundice" in American Journal of Medical Science, Vol. 190, pages 501-511, 1935. The compounds were dissolved in a 1:9 v/v mixture of triethanolamine and polyethylene glycol 200 Mol Wt and serially diluted to give appropriate doses in 1 ml per 1 kg of animal body weight. The doses were injected into the test animals by the interperitoneal route. Three days after injection, blood was withdrawn by cardiac puncture whilst the test animals (200-250 g Wistar strain male rats) were held under "Halothane" anaesthesia.
Three rats were used in each test of a given compound, and three prothrombin time determinations were carried out on each blood sample. Prothrombin times were determined using the modified one-stage method of Quick. The percentage extension time of each prothrombin time was determined by assigning 0% extension time to an arbitary prothrombin resting time of 12 seconds, and 100% extension time to a prothrombin time elevated to an arbitrary 212 seconds. Results were plotted on log-probability graph paper, the best-line fitted, and the prothrombin the ED50 read from the graph.

[5] = system: vitamin K reductase; details: literature: Fasco et al 1982; Park et al 1982; cited from earlier work
[6] = system: Warfarin-resistant rodents; details: prior art; cited from earlier work
[7] = system: vitamin K 2, 3-epoxide reductase; details: literature: Fasco et al 1982; Park et al 1982; cited from earlier work
[8] = male Wistar rats 200-250 g, single intraperitoneal injection, blood taken three days after injection, ED50 = 50% extension of prothrombin time (0% = 12 s, 100% = 212 s)

SMILES | ED50 [4, 8] | further results
N#Cc1ccc(-c2ccc([C@H]3Cc4ccccc4[C@H](c4c(O)c5ccccc5oc4=O)C3)cc2)cc1 (relative stereo) [Compound 1] | 0.45 mg/kg | Deaths up to 21 days ([1]; bait 0.2 ppm): 0/5; Deaths up to 21 days ([1]; bait 0.5 ppm): 5/5; Deaths up to 21 days ([1]; bait 2.0 ppm): 5/5; Deaths up to 21 days ([1]; bait 5.0 ppm): 5/5; Death up to 21 days, rats ([2]; bait 20.0 ppm): 5/5; Death up to 21 days, mice ([3]; bait 20.0 ppm): 5/5
N#Cc1ccc(-c2ccc([C@@H]3Cc4ccccc4[C@H](c4c(O)c5ccccc5oc4=O)C3)cc2)cc1 (relative stereo) [Compound 2] | 0.31 mg/kg | Death up to 21 days, rats ([2]; bait 20.0 ppm): 5/5; Death up to 21 days, mice ([3]; bait 20.0 ppm): 4/5
O=c1oc2ccccc2c(O)c1[C@@H]1C[C@@H](c2ccc(OCc3ccccc3)cc2)Cc2ccccc21 (relative stereo) [Compound 14, reference compound] | 4.3 mg/kg | anticoagulant activity (comparison in words) [4]: activity much lower than similarly structured Difenacourm
O=c1oc2ccccc2c(O)c1[C@@H]1C[C@@H](c2ccc(-c3ccc(C(F)(F)F)cc3)cc2)Cc2ccccc21 (relative stereo) [Compound 24, 3[3-(4'-trifluoromethyl-4-yl)-1,2,3,4-tetrahydro-1-naphthyl]-4hydroxycoumarin] | 0.47 mg/kg | –
O=c1oc2ccccc2c(O)c1[C@@H]1C[C@H](c2ccc(-c3ccc(C(F)(F)F)cc3)cc2)Cc2ccccc21 (relative stereo) [Compound 25, 3[3-(4'-trifluoromethyl-4-yl)-1,2,3,4-tetrahydro-1-naphthyl]-4hydroxycoumarin] | 0.46 mg/kg | –
O=c1oc2ccccc2c(O)c1C1CC(c2ccc(-c3ccc(Br)cc3)cc2)Cc2ccccc21 (stereo not drawn) [Brodifacoum] | 0.28 mg/kg | inhibiting ability, vitamin K reductase [5]: have this inhibiting ability; effectiveness against Warfarin-resistant rodents [6]: effective against Warfarin-resistant rodents; also recorded: effectiveness against Warfarin-resistant rodents; inhibiting ability, vitamin K 2,3-epoxide reductase [7]: have this inhibiting ability; anticoagulant activity (comparison in words) [4]: particularly notable activity
O=c1oc2ccccc2c(O)c1C1CC(c2ccc(C(F)(F)F)cc2)Cc2ccccc21 (stereo not drawn) [Compound 3] | 0.59 mg/kg | Deaths up to 21 days ([1]; bait 2.0 ppm): 5/5; Deaths up to 21 days ([1]; bait 5.0 ppm): 5/5; Deaths up to 21 days ([1]; bait 10.0 ppm): 5/5; Deaths up to 21 days ([1]; bait 20.0 ppm): 5/5; Death up to 21 days, rats ([2]; bait 50.0 ppm): 5/5; Death up to 21 days, mice ([3]; bait 50.0 ppm): 3/5
O=c1oc2ccccc2c(O)c1C1CC(Cc2ccc(Cl)cc2Cl)Cc2ccccc21 (stereo not drawn) [Compound 6] | 1.8 mg/kg | –
N#Cc1ccc(C2Cc3ccccc3C(c3c(O)c4ccccc4oc3=O)C2)cc1 (stereo not drawn) [Compound 7] | 0.54 mg/kg | –
O=c1oc2ccccc2c(O)c1C1CC(c2ccc(-c3ccc(Br)cc3)o2)Cc2ccccc21 (stereo not drawn) [Compound 8] | 0.78 mg/kg | –
O=c1oc2ccccc2c(O)c1C1CC(c2ccc([N+](=O)[O-])cc2)Cc2ccccc21 (stereo not drawn) [Compound 9] | 0.8 mg/kg | –
N#Cc1ccc(Oc2ccc(C3Cc4ccccc4C(c4c(O)c5ccccc5oc4=O)C3)cc2)cc1 (stereo not drawn) [Compound 10] | 0.41 mg/kg | –
O=c1oc2ccccc2c(O)c1C1CC(c2ccc(OCc3ccc(Br)cc3)cc2)Cc2ccccc21 (stereo not drawn) [Compound 11] | 0.27 mg/kg | anticoagulant activity (comparison in words) [4]: activity greater than Brodifacoum
N#Cc1ccc(COc2ccc(C3Cc4ccccc4C(c4c(O)c5ccccc5oc4=O)C3)cc2)cc1 (stereo not drawn) [Compound 12] | 0.8 mg/kg | –
O=c1oc2ccccc2c(O)c1C1CC(c2ccc(OCc3ccc(C(F)(F)F)cc3)cc2)Cc2ccccc21 (stereo not drawn) [Compound 13] | 0.32 mg/kg | –
O=c1oc2ccccc2c(O)c1C1CC(c2ccc(OCc3ccc(F)cc3)cc2)Cc2ccccc21 (stereo not drawn) [Compound 15] | 0.47 mg/kg | –

SMILES | ED50 [4, 8] | further results
O=c1oc2ccccc2c(O)c1C1CC(c2ccc(OCc3ccc(Cl)c(Cl)c3)cc2)Cc2ccccc21 (stereo not drawn) [Compound 16] | 0.43 mg/kg | –
O=c1oc2ccccc2c(O)c1C1CC(c2ccc(CCc3ccc(Br)cc3)cc2)Cc2ccccc21 (stereo not drawn) [Compound 17] | 0.37 mg/kg | –
O=c1oc2ccccc2c(O)c1C1CC(c2ccc(CCc3ccc(Cl)cc3)cc2)Cc2ccccc21 (stereo not drawn) [Compound 18] | 0.27 mg/kg | anticoagulant activity (comparison in words) [4]: activity greater than Brodifacoum
N#Cc1ccc(CCc2ccc(C3Cc4ccccc4C(c4c(O)c5ccccc5oc4=O)C3)cc2)cc1 (stereo not drawn) [Compound 19] | 0.9 mg/kg | –
O=c1oc2ccccc2c(O)c1C1CC(c2ccc(Oc3ccc(C(F)(F)F)cc3)cc2)Cc2ccccc21 (stereo not drawn) [Compound 20] | 0.23 mg/kg | anticoagulant activity (comparison in words) [4]: activity greater than Brodifacoum
O=c1oc2ccccc2c(O)c1C1CC(c2ccc(/C=C/c3ccc(Br)cc3)cc2)Cc2ccccc21 (stereo not drawn) [Compound 21] | 0.8 mg/kg | –
O=c1oc2ccccc2c(O)c1C1CC(c2ccc(/C=C/c3ccccc3)cc2)Cc2ccccc21 (stereo not drawn) [Compound 22] | 0.8 mg/kg | –
O=c1oc2ccccc2c(O)c1C1CC(c2ccc(CCCc3ccc(Cl)cc3)cc2)Cc2ccccc21 (stereo not drawn) [Compound 23] | 0.23 mg/kg | anticoagulant activity (comparison in words) [4]: activity greater than Brodifacoum
O=c1oc2ccccc2c(O)c1C1CC(c2c(Cl)cccc2Cl)Cc2ccccc21 (stereo not drawn) [Compound 26, reference compound] | 10 mg/kg | –
O=c1oc2ccccc2c(O)c1C1CC(c2ccccc2-c2ccc(C(F)(F)F)cc2)Cc2ccccc21 (stereo not drawn) [Compound 27, reference compound] | > 10 mg/kg | –
O=c1oc2ccccc2c(O)c1C1CC(c2ccc3c(c2)CCCC3)Cc2ccccc21 (stereo not drawn) [Compound 28, reference compound] | 10 mg/kg | –
O=c1oc2ccccc2c(O)c1C1CC(CCCc2ccccc2)Cc2ccccc21 (stereo not drawn) [Compound 29, reference compound] | 14.1 mg/kg | –
CCCCCCC1Cc2ccccc2C(c2c(O)c3ccccc3oc2=O)C1 (stereo not drawn) [Compound 30, reference compound] | 14 mg/kg | –
O=c1oc2ccccc2c(O)c1C1CC(c2ccc(-c3ccccc3)cc2)Cc2ccccc21 (stereo not drawn) [Difenacoum] | – | inhibiting ability, vitamin K reductase [5]: have this inhibiting ability; effectiveness against Warfarin-resistant rodents [6]: effective against Warfarin-resistant rodents; inhibiting ability, vitamin K 2,3-epoxide reductase [7]: have this inhibiting ability; ED50 [4]: 0.56 mg/kg; activity relative to Brodifacoum ([4]; rat, in vivo): about 36%
CC(=O)CC(c1ccccc1)c1c(O)c2ccccc2oc1=O (stereo not drawn) [Warfarin] | 5.2 mg/kg | inhibiting ability, vitamin K reductase [5]: have this inhibiting ability; inhibiting ability, vitamin K 2,3-epoxide reductase [7]: have this inhibiting ability

From patent US4520007A, “Anti-coagulants of the 4-hydroxycoumarin type and rodenticidal compositions (baits) comprising such anti-coagulants” (priority 1982, dated 1985)
